How the values were obtained:
Ceruloplasmin (CP) = experiment: Microarray gene expression in Hep3B cells: ceruloplasmin; format: cell-based, human; conditions: 2 μM
Procedure: Hep3B cells (ATCC No. HB-8064) were grown in DMEM containing 8% fetal bovine serum. Hep3B cells were seeded into 6-well culture dishes at ˜500,000 cells per well. After 8 hours, the media was changed to DMEM containing 0.5% fetal bovine serum and the cells were incubated for an additional 16 hours. Compound B or compound D was added to the cells (2 μM final concentration) and the cells were incubated for various times. Control cells (no compound treatment, addition of DMSO alone) were harvested at 0, 6 and 48 hours. Harvested cells were assessed for cell viability (GUAVA), or added to RNA extraction buffer (RNeasy, Qiagen) and stored at −20° C. for subsequent RNA purification. Replicate microarrays were generated using RNA isolated from replicate experiments conducted on different days. Total RNA was isolated from cells using the RNeasy kit (Qiagen).
RNA was precipitated in 0.3 M sodium acetate (pH 5.2), 50 ng/ml glycogen, and 2.5 volumes of ethanol for one hour at −20° C. Samples were centrifuged and pellets were washed with cold 80% ethanol, dried, and resuspend in water. Double stranded cDNA was synthesized using a T7-(dT)24 first strand primer (Affymetrix, Inc., Santa Clara Calif.) and the SUPERSCRIPT CHOICE system (Invitrogen) according to the manufacturer's instructions. The final cDNA was extracted with an equal volume of 25:24:1 phenol:chloroform:isoamyl alcohol using a PHASE LOCK GEL insert (Brinkman, Inc., Westbury N.Y.). The aqueous phase was collected and cDNA was precipitated using 0.5 volumes of 7.5 M ammonium acetate and 2.5 volumes of ethanol. Alternatively, cDNA was purified using the GENECHIP sample cleanup module (Affymetrix) according to the manufacturer's instructions.
Biotin-labeled cRNA was synthesized from the cDNA in an in vitro […] (IVT) reaction using a BIOARRAY HighYield RNA transcript labeling kit (Enzo Diagnostics, Inc., Farmingdale N.Y.) according to the manufacturer's instructions. Final labeled product was purified and fragmented using the GENECHIP sample cleanup module (Affymetrix) according to the manufacturer's instructions.
Hybridization cocktail was prepared by bringing […] probe to […] in 1× hybridization buffer (100 mM MES, 1 M [Na^+], 20 mM EDTA, 0.01% Tween 20), 100 µg/ml herring sperm DNA, 500 µg/ml acetylated BSA, 0.03 nM contol oligo B2 (Affymetrix), and 1×GENECHIP eukaryotic hybridization control (Affymetrix). The cocktail was sequentially incubated at 99° C. for 5 minutes and 45° C. for 5 minutes, and then centrifuged for 5 minutes. The Human Genome U133A array (Affymetrix) was brought to room temperature and then prehybridized with 1× hybridization buffer at 45° C. for 10 minutes with rotation. The buffer was then replaced with […] hybridization cocktail and the array was hybridized for 16 hours at 45° C. at 60 rpm with counter balance. Following hybridization, arrays were washed once with 6×SSPE, 0.1% Tween 20, and then washed and stained using R-phycoerythrin-conjugated streptavidin (Molecular Probes, Eugene Oreg.), goat anti-streptavidin antibody (Vector Laboratories, Burlingame Calif.), and a GENECHIP Fluidics Station 400 instrument (Affymetrix) according to the manufacturer's micro_1v1 protocol (Affymetrix). Arrays were analyzed using a GENEARRAY scanner (Affymetrix) and Microarray Suite software (Affymetrix).
The Human Genome U133A array (Affymetrix) represents all sequences in the Human Unigene database build 133 (National Center for Biotechnology Information, Bethesda Md.), including approximately 14,500 well-characterized human genes.
RNA quality was monitored by capillary electrophoresis (Agilent Bioanalyzer). Hybridization cocktails were prepared as described (Affymetrix), and hybridized to Affymetrix human U133A arrays containing 22,283 probe sets. Array performance was analyzed with Affymetrix MicroArray Suite (MAS) software and individual probe sets were assigned “present”, “marginal, and “absent” calls according to software defaults. […]

E-selectin = experiment: TNF-α induced E-selectin expression in HUVEC; format: cell-based, human; conditions: 1 ng/ml TNF-α, various concentrations, 1 day
Text: Endothelial E-selectin belongs to the selectin family of cellular adhesion molecules mediating the initial attachment of leukocytes to vascular endothelial cells in inflammatory events. IL-1β, TNF-α, and lipopolysaccharides each induce the expression of E-selectin. (See, e.g., Bevilacqua et al. (1987) Proc Natl Acad Sci USA 84:9238-9242 and Bevilacqua and van Furth (1993) J Leukoc Biol 54:363-378.) To investigate the effect of HIF prolyl hydroxylase inhibition on TNF-α induced E-selectin expression, HUVECs were stimulated with 1 ng/ml TNF-α in the absence or presence of various concentrations of compound B or compound C for 1 day. E-selectin and VCAM expression were then measured.

O=C(O)CNC(=O)c1ncc2cc(Oc3ccccc3)ccc2c1O [Compound B, [(4-Hydroxy-7-phenoxy-isoquinoline-3-carbonyl)-amino]-acetic acid]
Ceruloplasmin (CP) fold-increase in mRNA levels above control, first data point (Ceruloplasmin (CP); 1 hr): 1.142 fold | Ceruloplasmin (CP) fold-increase in mRNA levels above control, second data point (Ceruloplasmin (CP); 1 hr): 0.946 fold | Ceruloplasmin (CP) fold-increase in mRNA levels above control, first data point (Ceruloplasmin (CP); 3 hr): 1.123 fold | Ceruloplasmin (CP) fold-increase in mRNA levels above control, second data point (Ceruloplasmin (CP); 3 hr): 0.955 fold | Ceruloplasmin (CP) fold-increase in mRNA levels above control, first data point (Ceruloplasmin (CP); 6 hr): 1.555 fold | Ceruloplasmin (CP) fold-increase in mRNA levels above control, second data point (Ceruloplasmin (CP); 6 hr): 1.103 fold | Ceruloplasmin (CP) fold-increase in mRNA levels above control, first data point (Ceruloplasmin (CP); 12 hr): 2.366 fold | Ceruloplasmin (CP) fold-increase in mRNA levels above control, second data point (Ceruloplasmin (CP); 12 hr): 2.507 fold | Ceruloplasmin (CP) fold-increase in mRNA levels above control, first data point (Ceruloplasmin (CP); 24 hr): 5.136 fold | Ceruloplasmin (CP) fold-increase in mRNA levels above control, second data point (Ceruloplasmin (CP); 24 hr): 4.909 fold | Ceruloplasmin (CP) fold-increase in mRNA levels above control, first data point (Ceruloplasmin (CP); 48 hr): 5.82 fold | Ceruloplasmin (CP) fold-increase in mRNA levels above control, second data point (Ceruloplasmin (CP); 48 hr): 4.678 fold | inhibition of TNF-α induced E-selectin expression (E-selectin): dose-dependent inhibition of TNF-α induced VCAM and E-selectin expression

From patent US11680047B2, “Enhanced erythropoiesis and iron metabolism” (FibroGen, Inc., priority 2003, dated 2023)
